{
  "source": "patent US11413321B2",
  "about": "“Pharmaceutical composition for use in increasing hair, modifying scalp or skin, healing a wound, promoting osteogenesis, or modifying hair” (priority 2017, dated 2022)",
  "type_in_all_cases": "in vivo, Wistar rat",
  "key": {"[1]": {"tested_on": "full-thickness skin defect", "assay": "Wound healing score, circular full-thickness skin defect on the dorsal part", "conditions": "20 μL administration liquid containing 1 mg of the fatty acid at each of four locations; FIG. 6C", "description": "Formation of wounds: hair on the dorsal part of a 12-week-old Wistar rat was shaven with hair clippers, and a circular full-thickness skin defect with a diameter of 8 mm was produced on each of the left and right sides of the head and the left and right sides of the tail. The full-thickness skin defect was formed at four locations per body.\nAdministration of milk: 20 μL of milk was subcutaneously injected at each of four locations, namely upper, lower, left and right, in a place 4 mm away from the peripheral edge of the wound. As the milk, the commercially available bovine milk sterilized by heating (at 130 degrees for 2 seconds and 65 degrees for 30 minutes) as described in Example 1 was used.\nAdministration of fatty acid: As a fatty acid contained in the milk, sterile purified water (administration liquid) containing palmitic acid, stearic acid, myristic acid, linolenic acid, α-linoleic acid and oleic acid, respectively was administered. Here, the water was heated and administered for the saturated fatty acids, and the water was administered at room temperature for the unsaturated fatty acids. 20 μL of the administration liquid (containing 1 mg of the fatty acid) was subcutaneously administered at each of four locations, namely upper, lower, left and right, in a place 4 mm away from the peripheral edge of the wound.\nScore 4: The reduction ratio of the area of the wound site is 70% or more.\nScore 3: The reduction ratio of the area of the wound site is 50% or more and less than 70%.\nScore 2: The reduction ratio of the area of the wound site is 20% or more and less than 50%.\nScore 1: The reduction ratio of the area of the wound site is less than 20%.\nThe result was given as a ratio obtained by dividing the above score by the score for physiological saline.\nTwo tubes of 8 mL of commercially available milk sterilized at a low temperature (65 degrees for 30 minutes) were centrifuged by a centrifugal separator (2600 g×6 minutes), 2 mL of one fourth of the supernatant exclusive of a whip portion was collected from each tube, the two collected liquids were combined to obtain 4 mL of a liquid, and 4 mL of the resulting liquid was stirred, and used for experiments (hereinafter, the obtained sample is referred to as a “centrifuged sample”). The obtained centrifuged sample was administered to the wound site at a dosage of 20 μL per location in the same manner as described above. The results are shown in “Centrifuged Sample” in FIG. 6A.\nNext, a wound healing-promoting effect of lactoferrin was examined. As lactoferrin, Nice rim essence 62971 (trade name) purchased from Lion Corporation was used and administered at one location in an amount of 20 μg or 60 μg in the same manner as described above. Specifically, the lactoferrin was ground, and then thoroughly dissolved in purified water. The lactoferrin concentration was adjusted so that an injection amount of 20 μL included the above administration amount. The result was given as a value obtained by dividing each of scores after seven days and after ten days by the score for the physiological saline administration group."}, "CD68-positive cells": {"tested_on": "CD68-positive cells", "assay": "Immunohistological staining of rat dorsal skin after injection of fatty acids (CD68)", "conditions": "1 mg fatty acid in 20 μL per location", "description": "Next, representative fatty acids contained in milk were administered to a 12-week-old Wistar rat at a plurality of locations on the dorsal skin as in Example 1(2) above, and a change in tissues by the administration was observed after the tissues were subjected to immunohistological staining. More specifically, physiological saline was administered in an amount of 20 μL per location, an administration liquid containing 1 mg of a fatty acid was administered in an amount of 20 μL per location, and a change in CD68-positive macrophage stained images and PPAR-γ-positive cell images by the administration was observed. Samples of the Wistar rat were obtained by sampling administration sites (four weeks after administration and eight weeks after administration). FIGS. 10A to 10G show the results. […] At saturated fatty acid injection sites, infiltration of a large number of CD68-positive cells was observed, and fibrillization of normal tissues was observed. Therefore, in FIGS. 10B to 10D, a change in fat tissues was examined at a location which was closest to the administration site and where normal tissues were maintained (non-fibrillization location)."}, "Cxcr4": {"tested_on": "Cxcr4", "assay": "Quantitative PCR of dorsal tissues after subcutaneous administration (Cxcr4)", "conditions": "20 μL per location into rat dorsal part; vs control without administration; FIG. 15", "description": "3.) C—X—C motif chemokine receptor 4 (Cxcr4), Rattus norvegicus: mRNA 1,726 bp NM 022205.3 GI: 82617587 Next, a change in gene expression in tissues was examined. Three regions were set between the head and the tail of the dorsal part of a 12-week-old Wistar rat (male), and each region was divided between the left and the right of the backbone into two regions to set a total of six regions on the dorsal part. Milk or palmitic acid was injected in an amount of 20 μL per location at two locations in the vicinity of the center of each region. The distance between the two locations was 1 cm. The collected tissue fragments were frozen with liquid nitrogen, and stored at −80° C. […] Analysis of gene expression by quantitative PCR was performed in the following manner: Integrated DNA technologies, Inc (Skokie, Ill., USA) was requested to design and synthesize gene-specific primers and probes, and using PrimeTime Gene Expression Master Mix Reagent (Integrated DNA Technologies, Inc, Skokie, Ill., USA) and Rotor-Gene Q PCR Apparatus (QIAGEN GmbH, Hilden, Germany), PCR analysis was performed twice per gene per specimen to analyze the expression level of a target gene. […]"}},
  "data": [
    {"compound": "CCCCCCCCCCCCCCCC(=O)O", "note": "[palmitic acid]", "values": [
      {"measurement": "wound healing-promoting effect (score divided by the score for physiological saline)", "setting": "[1]", "result": "high promoting effect"},
      {"measurement": "number of CD68-positive cells at the administration site", "setting": "CD68-positive cells; eight weeks after administration", "result": "maintained"},
      {"measurement": "number of CD68-positive cells at the administration site", "setting": "CD68-positive cells; four weeks after administration, vs physiological saline", "result": "increased"},
      {"measurement": "expression level of Cxcr4 in tissues", "setting": "Cxcr4", "result": "greatly increased"}
    ]}
  ]
}
